As usually defined, the clearance is the rate of elimination divided by the concentration. Low values mean a low capacity for elimination, high ones a high capacity for elimination. As a reminder, the inhibition is the relative decrease from the control value, in per cent. As a reminder, the bioavailability is the share of a dose that reaches the circulation, judged against a reference dose that is usually intravenous. A word on the MRT: it is the average time that molecules of a dose stay in the body. In general, Cmax refers to the highest concentration seen after dosing. For orientation: half-life means how long it takes for the measured level to halve. A high value points to slow decline.

Data set [1] in a line: Clearance in BALB/c mouse at 2 mg/kg, iv measured up to 24 hrs by LC-MS/MS analysis. Format: ADME, organism-based. As to conditions: in vivo.
Data set [2] deals with Proto-oncogene tyrosine-protein kinase Src (Rattus norvegicus) (UniProt Q9WUD9). In words: Inhibition of Src phosphorylation in rat RBL-2H3 cells assessed as inhibition of Fc epsilonRI-mediated signal transduction by Western blot analysis. In kind it is cell-based. The following applies: dose 8-200 nM. For orientation: Immunoblotting shows a protein as a band on a membrane.

The nature of data set [3]: Toxicity in anti-DNP IgE sensitized BALB/c mouse assessed as death at 40 mg/kg, po. In kind it is organism-based. The following applies: in vivo.
Data set [4] in a line: Oral bioavailability in BALB/c mouse at 20 mg/kg measured up to 24 hrs by LC-MS/MS analysis. Format: ADME, organism-based. As to conditions: in vivo.
The test system of data set [5] is RBL-2H3. Nature of the data set: Antiallergic activity against anti-DNP-IgE sensitized rat RBL-2H3 cells assessed as […] of degranulation by measuring beta-hexosaminidase release using P-nitrophenyl-N-acetyl-D-glucosamide as substrate at 0.04 uM measured after 1 hr by microplate reader relative to control. In kind it is functional.
Data set [6] relates to Mus musculus. In words: Antiallergic activity against anti-DNP IgE sensitized passive systemic anaphylaxis-induced BALB/c mouse pulmonary allergic inflammation model assessed as by decrease in body temperature drop at 40 mg/kg, po measured every 5 mins for 60 mins. In kind it is functional, organism-based.
Data set [7] in a line: MRT in BALB/c mouse at 20 mg/kg, po measured up to 24 hrs by LC-MS/MS analysis. As to conditions: in vivo. In kind it is ADME, organism-based.
Data set [8] in a line: Toxicity in anti-DNP IgE sensitized BALB/c mouse assessed as body weight loss at 40 mg/kg, po. Format: organism-based. The following applies: in vivo.
The nature of data set [9]: Cmax in BALB/c mouse at 20 mg/kg, po measured up to 24 hrs by LC-MS/MS analysis. Format: ADME, organism-based. As to conditions: in vivo. Further details: route oral, dose 20 mg/kg, time <=24.
Data set [10] can be described thus: Volume of distribution at steady state in BALB/c mouse at 2 mg/kg, iv measured up to 24 hrs by LC-MS/MS analysis. In kind it is ADME, organism-based. The following applies: in vivo, read-out: Vdss.
Data set [11] in a line: Toxicity in anti-DNP IgE sensitized BALB/c mouse assessed as hepatopathy at 40 mg/kg, po. As to conditions: in vivo. Format: organism-based.
Data set [12] deals with Mus musculus. Nature of the data set: Antiallergic activity against anti-DNP IgE sensitized house dust mite-induced BALB/c mouse pulmonary allergic inflammation model assessed as by reduction in serum total IgE level at 40 mg/kg, po measured every 5 mins for 60 mins. Format: functional, organism-based.
A short description of data set [13]: Half life in BALB/c mouse at 20 mg/kg, po measured up to 24 hrs by LC-MS/MS analysis. Format: ADME, organism-based. The following applies: in vivo.
A short description of data set [14]: Toxicity in anti-DNP IgE sensitized BALB/c mouse assessed as hemorrhage at 40 mg/kg, po. In kind it is organism-based. As to conditions: in vivo.
Data set [15] can be described thus: Toxicity in anti-DNP IgE sensitized BALB/c mouse assessed as piloerection at 40 mg/kg, po. In kind it is organism-based. As to conditions: in vivo.
For data set [16], the system named is RBL-2H3. In words: Inhibition of p38 MAPK phosphorylation in rat RBL-2H3 cells assessed as inhibition of Fc epsilonRI-mediated signal transduction by Western blot analysis. In kind it is cell-based. The following applies: dose 8-200 nM.
Data set [17] can be described thus: MRT in BALB/c mouse at 2 mg/kg, iv measured up to 24 hrs by LC-MS/MS analysis. Format: ADME, organism-based. The following applies: in vivo.
A short description of data set [18]: Toxicity in anti-DNP IgE sensitized BALB/c mouse assessed as vomiting at 40 mg/kg, po. Format: organism-based. The following applies: in vivo.
A short description of data set [19]: Toxicity in anti-DNP IgE sensitized BALB/c mouse assessed as ascites at 40 mg/kg, po. Format: organism-based. As to conditions: in vivo.
The nature of data set [20]: Toxicity in anti-DNP IgE sensitized BALB/c mouse assessed as diarrhea at 40 mg/kg, po. Format: organism-based. The following applies: in vivo.
The target in data set [21] is Tyrosine-protein kinase SYK (Homo sapiens) (UniProt P43405). In words: Inhibition of human full length recombinant Syk at 5 nM by radiometric scintillation counting analysis relative to control.
Data set [22] addresses Tyrosine-protein kinase JAK1 (Homo sapiens) (UniProt P23458). In words: Inhibition of human recombinant JAK1 at 5 nM radiometric scintillation counting analysis relative to control.

Activity calls are given as the source filed them. The rule behind the calls is not given here.

Sequence of Proto-oncogene tyrosine-protein kinase Src (Rattus norvegicus) (Q9WUD9 2-536 limits assumed): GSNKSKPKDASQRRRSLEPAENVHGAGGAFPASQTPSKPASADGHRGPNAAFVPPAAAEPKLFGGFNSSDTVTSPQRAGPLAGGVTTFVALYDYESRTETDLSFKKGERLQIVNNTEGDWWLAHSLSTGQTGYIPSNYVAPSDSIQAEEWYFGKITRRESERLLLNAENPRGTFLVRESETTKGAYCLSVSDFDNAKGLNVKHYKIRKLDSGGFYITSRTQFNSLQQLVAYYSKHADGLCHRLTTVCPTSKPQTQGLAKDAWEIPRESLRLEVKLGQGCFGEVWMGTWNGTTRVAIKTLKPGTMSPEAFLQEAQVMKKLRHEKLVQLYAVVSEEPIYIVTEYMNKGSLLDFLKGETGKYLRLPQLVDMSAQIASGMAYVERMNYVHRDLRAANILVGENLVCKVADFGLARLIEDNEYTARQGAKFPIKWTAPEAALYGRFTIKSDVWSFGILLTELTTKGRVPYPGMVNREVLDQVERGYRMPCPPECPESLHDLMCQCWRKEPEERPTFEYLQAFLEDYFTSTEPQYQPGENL
Sequence of Tyrosine-protein kinase JAK1 (Homo sapiens) (P23458 whole entry): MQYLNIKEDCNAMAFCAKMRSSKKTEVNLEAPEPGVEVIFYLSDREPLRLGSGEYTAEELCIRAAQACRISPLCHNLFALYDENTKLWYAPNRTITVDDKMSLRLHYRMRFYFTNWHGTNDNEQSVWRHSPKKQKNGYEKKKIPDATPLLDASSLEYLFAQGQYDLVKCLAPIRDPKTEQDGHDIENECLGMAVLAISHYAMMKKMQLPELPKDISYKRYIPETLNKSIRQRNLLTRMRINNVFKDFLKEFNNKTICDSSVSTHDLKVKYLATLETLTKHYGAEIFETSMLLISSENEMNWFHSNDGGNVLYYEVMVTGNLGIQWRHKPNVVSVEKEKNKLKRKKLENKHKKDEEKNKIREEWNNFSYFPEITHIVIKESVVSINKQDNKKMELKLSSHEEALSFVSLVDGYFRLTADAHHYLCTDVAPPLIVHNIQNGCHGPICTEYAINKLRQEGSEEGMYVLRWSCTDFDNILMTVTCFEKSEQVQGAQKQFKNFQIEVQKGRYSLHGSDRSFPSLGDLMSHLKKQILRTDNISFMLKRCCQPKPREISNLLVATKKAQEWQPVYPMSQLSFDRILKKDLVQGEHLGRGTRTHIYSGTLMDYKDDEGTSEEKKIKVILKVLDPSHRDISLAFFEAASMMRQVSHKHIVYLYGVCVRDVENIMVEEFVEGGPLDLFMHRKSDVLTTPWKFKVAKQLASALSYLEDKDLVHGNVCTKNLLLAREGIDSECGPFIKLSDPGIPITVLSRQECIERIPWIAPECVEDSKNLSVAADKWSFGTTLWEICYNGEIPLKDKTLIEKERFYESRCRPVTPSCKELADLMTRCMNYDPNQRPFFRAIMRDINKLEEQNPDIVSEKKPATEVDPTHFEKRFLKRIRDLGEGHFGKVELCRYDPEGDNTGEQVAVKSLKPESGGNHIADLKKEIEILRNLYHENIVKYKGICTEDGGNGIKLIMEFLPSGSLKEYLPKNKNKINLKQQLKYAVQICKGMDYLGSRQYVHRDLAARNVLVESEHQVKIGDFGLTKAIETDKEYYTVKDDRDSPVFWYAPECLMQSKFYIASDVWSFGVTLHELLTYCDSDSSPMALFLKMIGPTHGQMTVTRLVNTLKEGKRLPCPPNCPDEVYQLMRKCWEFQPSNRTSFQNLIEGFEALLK

The compound `Cc1ccc(C(=O)Nc2cc(C(F)(F)F)cc(C(F)(F)F)c2)cc1C#Cc1cc(-c2cnn(C)c2)cnc1N` showed a clearance in [1] of 15.2 mL/min/kg. Besides, the inhibition result in data set [2] and in data set [16] was “Dose-Dependent Effect” in each case. The Activity result in data set [3], in data set [8], in data set [11], in data set [14], in [15] and in data set [18] was “Non-Toxic” in each case. Also, the Activity result in data set [19] and in data set [20] was “Non-Toxic” each time. Moreover, the bioavailability in data set [4] worked out at 99.9%. Besides, the inhibition at 0.04 µM in data set [5] was 112%. Moreover, the result in data set [6] and in data set [12] was Active. For the same compound, the figures for the MRT in [7] and in data set [17] were 11.2 h and 4.4 h, respectively. The same compound yielded a Cmax in [9] of 1940 ng/mL. Moreover, the Vd in data set [10] worked out at 4 L/kg. The same compound had a half-life in data set [13] of 6.9 h.
Regarding `Cc1ccc(C(=O)Nc2ccc(Cl)cc2Cl)cc1C#Cc1cc(-c2cnn(C)c2)cnc1N`, the inhibition in data set [21] is -2%; in [22] it was 14%.

For the origin of these results see ChEMBL document CHEMBL4837249, “Discovery of Potent Antiallergic Agents Based on an o-Aminopyridinyl Alkynyl Scaffold” (J Med Chem, 2021).
